The target of the assay is T1, Protein kinase C zeta type (Homo sapiens, UniProt Q05513).
T1 sequence (Q05513 whole entry): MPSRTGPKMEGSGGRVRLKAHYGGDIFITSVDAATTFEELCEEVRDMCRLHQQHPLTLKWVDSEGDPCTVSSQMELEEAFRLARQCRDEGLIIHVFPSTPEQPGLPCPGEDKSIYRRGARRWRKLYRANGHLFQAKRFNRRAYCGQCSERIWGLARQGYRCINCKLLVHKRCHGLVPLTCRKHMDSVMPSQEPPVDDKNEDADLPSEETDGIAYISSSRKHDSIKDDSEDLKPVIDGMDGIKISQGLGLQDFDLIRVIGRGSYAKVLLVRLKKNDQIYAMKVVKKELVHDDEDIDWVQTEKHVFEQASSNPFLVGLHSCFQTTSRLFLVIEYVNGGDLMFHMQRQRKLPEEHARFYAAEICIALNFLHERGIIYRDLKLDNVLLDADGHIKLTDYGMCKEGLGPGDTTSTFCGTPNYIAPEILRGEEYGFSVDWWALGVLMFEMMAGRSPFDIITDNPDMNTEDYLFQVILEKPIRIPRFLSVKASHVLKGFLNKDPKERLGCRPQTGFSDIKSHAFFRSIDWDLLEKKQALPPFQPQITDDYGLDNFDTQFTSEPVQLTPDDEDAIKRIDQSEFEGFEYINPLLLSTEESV
Put plainly: PKC Enzyme Assay. The conditions noted are these: pH 7.5; 23 °C. How it is done: Protein kinase C (PKC), zeta activity was measured by following the phosphorylation of a biotinylated peptide substrate in the presence of ATP using AlphaScreen technology (Perkin Elmer, Waltham, MA). The AlphaScreen assay format relies on bringing a streptavidin coated donor bead and an IgG-protein A acceptor bead into proximity through the interaction between biotinylated phosphorylated peptide and a phospho-specific antibody to the peptide. Upon excitation of the donor bead at 680 nm, excited state singlet oxygen is produced and diffuses to acceptor beads in close proximity (200 nm), activating a cascade of fluorophores resulting in emission between 520-620 nm. Kinase activity is quantified through the evaluation of this emission signal. Compounds are evaluated as potential inhibitors of the PKC kinase activity by measuring their effects on the phosphorylation of the peptide substrate. IC50 value determinations were made for potential inhibitors by testing compounds at 12 concentrations in three-fold serial dilutions with each concentration tested in triplicate. Reactions were carried out for 60 minutes at room temperature. Reactions were then quenched by addition of stop solution. […] Plates were then read on a Fusion reader after an overnight equilibrium at room temperature.

For `CN1CCN(c2cccc3[nH]c(-c4n[nH]c5cc(-c6ccc7ccoc7c6)ccc45)nc23)CC1` [indazole-benzimidazole, 25], half-maximal inhibition (IC50) was put at 3.02 µM.

`CN1CCN(c2cccc3[nH]c(-c4n[nH]c5cc(-c6ccc7ncccc7c6)ccc45)nc23)CC1` [indazole-benzimidazole, 23] came in with an IC50 of 6.84 µM.

As a reminder, the IC50 is the concentration that inhibits the measured activity by half. A low value points to greater potency in that assay.
